Each molecule was assayed on rabbit skeletal muscle myofibril preparations (approximately 90% fast fibers) (assay: Activation of fast skeletal muscle fibers: enzymatic activity of myofibril preparations (PUMA assay system)). Details: detergent treated myofibrils at pCa25%, 500 μM ATP; cells marked †: Mean value.
Format: biochemical
Set-up: unit not given here
Source text: Fast fiber activators were identified by measuring the enzymatic activity of muscle myofibril preparations using the proprietary PUMA™ (see, e.g., U.S. Pat. Nos. 6,410,254, 6,743,599, 7,202,051, and 7,378,254) assay system. Myofibril preparations consisted of rabbit skeletal muscle (approximately 90% fast fibers) that had been treated with a detergen (triton X-100) to remove cellular membranes and then homogenized. This preparation retained all of the sarcomeric components in a native conformation and the enzymatic activity was still regulated by calcium. Compounds were tested using a myofibril suspension and a level of calcium sufficient to increase enzymatic activity of the myofibrils to 25% of their maximal rate (termed pCa25%). Enzymatic activity was tracked via a kinetic assay with a UV absorption readout. Hits were identified as compounds that increased the rate of enzymatic activity by greater than 40% at 40 μM. Myofibril preparations are calcium regulated and were screened at a level of calcium sufficient to produce a 25% increase in enzymatic rate. Detergent treated myofibrils were incubated with 500 μM ATP and 40 μM compound and a kinetic read of UV absorbance performed. Data was normalized to control wells.

| Molecule | AC1.4 Median |
| --- | --- |
| 6-chloro-1-(ethylpropyl)-7-(3-fluorophenyl)imidazo[4,5-b]pyridin-2-ol | 0.248† |
| CC[C@@H](CO)n1c(O)nc2ncc(Cl)c(-c3ccc(Cl)cc3)c21 [1-((1S)-1-ethyl-2-hydroxyethyl)-6-chloro-7-(4-chlorophenyl)imidazo[4,5-b]pyridin-2-ol] | 0.261† |
| 6-chloro-1-(ethylpropyl)-7-(2-fluorophenyl)imidazo[4,5-b]pyridin-2-ol | 0.230† |
| 6-chloro-7-(3-chlorophenyl)-1-(ethylpropyl)imidazo[4,5-b]pyridin-2-ol | 0.330† |
| 6-chloro-7-(5-chloro(2-pyridyl))-1-(ethylpropyl)imidazo[4,5-b]pyridin-2-ol | 0.320† |
| CCC(CC)n1c(O)nc2ncc(Cl)c(-c3ccccc3)c21 [6-chloro-1-(ethylpropyl)-7-phenylimidazo[4,5-b]pyridin-2-ol] | 0.110† |
| 7-(3,4-difluorophenyl)-6-chloro-1-(ethylpropyl)imidazo[4,5-b]pyridin-2-ol | 0.106† |
| CC[C@@H](CCO)n1c(O)nc2ncc(Cl)c(-c3ccc(F)cc3)c21 [1-((1S)-1-ethyl-3-hydroxypropyl)-6-chloro-7-(4-fluorophenyl)imidazo[4,5-b]pyridin-2-ol] | 0.475† |
| CCC(CC)n1c(O)nc2ncc(Cl)c(-c3ccsc3)c21 [6-chloro-1-(ethylpropyl)-7-(3-thienyl)imidazo[4,5-b]pyridin-2-ol] | 0.124† |
| CC(C)n1c(O)nc2ncc(Cl)c(-c3ccc(F)cc3)c21 [6-chloro-7-(4-fluorophenyl)-1-(methylethyl)imidazo[4,5-b]pyridin-2-ol] | 0.096† |
| CC(C)C[C@@H](CO)n1c(O)nc2ncc(Cl)c(-c3ccc(F)cc3)c21 [1-[(1S)-2-hydroxy-1-(2-methylpropyl)ethyl]-6-chloro-7-(4-fluorophenyl)imidazo[4,5-b]pyridin-2-ol] | 0.072† |
| CCC(CC)n1c(O)nc2ncc(Cl)c(-c3cccs3)c21 [6-chloro-1-(ethylpropyl)-7-(2-thienyl)imidazo[4,5-b]pyridin-2-ol] | 0.136† |
| CC[C@H](COC(C)=O)c1nc2nc(O)[nH]c2c(-c2ccc(F)cc2)c1Cl [(2S)-2-[6-chloro-7-(4-fluorophenyl)-2-hydroxyimidazo[4,5-b]pyridinyl]butyl acetate] | 0.234† |
| 6-chloro-7-(4-chloro-3-fluorophenyl)-1-(ethylpropyl)imidazo[4,5-b]pyridin-2-ol | 0.116† |

Same assay, conditions: detergent treated myofibrils at pCa25%, 500 μM ATP; median value (no †)

| Molecule | AC1.4 Median |
| --- | --- |
| 6-chloro-1-(ethylpropyl)-7-imidazolylimidazo[4,5-b]pyridin-2-ol | 22.2909 |
| {3-[6-chloro-1-(ethylpropyl)-2-hydroxyimidazo[4,5-b]pyridin-7-yl]phenyl}-N,N-dimethylcarboxamide | 21.245 |
| CCC(CC)n1c(O)nc2ncc(Cl)c(-c3cccc(C=O)c3)c21 [3-[6-chloro-1-(ethylpropyl)-2-hydroxyimidazo[4,5-b]pyridin-7-yl]benzaldehyde] | 1.943 |
| CCC(CC)n1c(O)nc2ncc(Cl)c(-c3ccnc(C#N)c3)c21 [4-(6-chloro-2-hydroxy-1-(pentan-3-yl)-1H-imidazo[4,5-b]pyridin-7-yl)picolinonitrile] | 9.842 |
| CC[C@@H](CO)n1c(O)nc2ncc(Cl)c(-c3ccc(Cl)cc3)c21 [1-((1S)-1-ethyl-2-hydroxyethyl)-6-chloro-7-(4-chlorophenyl)imidazo[4,5-b]pyridin-2-ol] | 2.059 |
| COCC(COC)n1c(O)nc2ncc(Cl)c(-n3cccn3)c21 [6-chloro-1-[2-methoxy-1-(methoxymethyl)ethyl]-7-pyrazolylimidazo[4,5-b]pyridin-2-ol] | 27.9068 |
| 6-chloro-1-(ethylpropyl)-7-(6-methyl(3-pyridyl))imidazo[4,5-b]pyridin-2-ol | 12.164 |
| CC[C@H](COC(=O)[C@@H](N)C(C)C)c1nc2nc(O)[nH]c2c(-c2ccc(F)c(F)c2)c1Cl [(2S)-2-[7-(3,4-difluorophenyl)-6-chloro-2-hydroxyimidazo[4,5-b]pyridinyl]butyl (2S)-2-amino-3-methylbutanoate] | 6.640 |
| C[C@H](CO)n1c(O)nc2ncc(Cl)c(-c3ccc(F)cc3)c21 [1-((1R)-2-hydroxy-isopropyl)-6-chloro-7-(4-fluorophenyl)imidazo[4,5-b]pyridin-2-ol] | 11.044 |
| 6-chloro-1-(ethylpropyl)-7-(2-methoxy(4-pyridyl))imidazo[4,5-b]pyridin-2-ol | 2.808 |
| CC[C@H](CO)n1c(O)nc2ncc(Cl)c(-c3ccc(F)c(F)c3)c21 [1-((1R)-1-ethyl-2-hydroxyethyl)-7-(3,4-difluorophenyl)-6-chloroimidazo[4,5-b]pyridin-2-ol] | 4.034 |
| CCC(CC)n1c(O)nc2ncc(Cl)c(-c3ccc(S(C)(=O)=O)cc3)c21 [1-[6-chloro-1-(ethylpropyl)-2-hydroxyimidazo[4,5-b]pyridin-7-yl]-4-(methylsulfonyl)benzene] | 45.324 |
| 6-chloro-1-(ethylpropyl)-7-[2-(methoxymethyl)phenyl]imidazo[4,5-b]pyridin-2-ol | 3.588 |
| C=CCn1c(O)nc2ncc(Cl)c(-c3ccc(F)cc3)c21 [6-chloro-7-(4-fluorophenyl)-1-prop-2-enylimidazo[4,5-b]pyridin-2-ol] | 1.947 |
| CC[C@@H](CO)n1c(O)nc2ncc(F)c(-c3ccc(Cl)cc3)c21 [1-((1S)-1-ethyl-2-hydroxyethyl)-7-(4-chlorophenyl)-6-fluoroimidazo[4,5-b]pyridin-2-ol] | 2.643 |
| CC[C@@H](CO)n1c(O)nc2ncc(-c3ccc(F)cc3)c(-c3ccc(F)cc3)c21 [1-((1S)-1-ethyl-2-hydroxyethyl)-6,7-bis(4-fluorophenyl)imidazo[4,5-b]pyridin-2-ol] | 17.720 |
| CCC(COP(=O)(O)O)c1nc2nc(O)[nH]c2c(-c2ccc(F)c(F)c2)c1Cl (stereo not drawn) [2-[7-(3,4-difluorophenyl)-6-chloro-2-hydroxyimidazo[4,5-b]pyridinyl]butyl dihydrogen phosphate] | 44.713 |

| Molecule | AC1.4 Median |
| --- | --- |
| CC(C)CC(CO)n1c(O)nc2ncc(Cl)c(-c3ccc(F)cc3)c21 (stereo not drawn) [6-chloro-7-(4-fluorophenyl)-1-[2-hydroxy-1-(2-methylpropyl)ethyl]imidazo[4,5-b]pyridin-2-ol] | 0.210 |
| 6-chloro-1-(ethylpropyl)-7-(3-hydroxyphenyl)imidazo[4,5-b]pyridin-2-ol | 3.021 |
| 6-chloro-1-(ethylpropyl)-7-(6-methoxy(3-pyridyl))imidazo[4,5-b]pyridin-2-ol | 2.232 |
| CC[C@@H](CO)n1c(O)nc2ncc(Cl)c(-c3ccc(OC)cc3)c21 [1-((1S)-1-ethyl-2-hydroxyethyl)-6-chloro-7-(4-methoxyphenyl)imidazo[4,5-b]pyridin-2-ol] | 5.251 |
| CC[C@H](C)n1c(O)nc2ncc(Cl)cc21 [1-((1S)-1-methylpropyl)-6-chloroimidazo[4,5-b]pyridin-2-ol] | 1.7291 |
| CC[C@@H](CO)n1c(O)nc2ncc(Cl)c(-c3ccc(Cl)cn3)c21 [1-((1S)-1-ethyl-2-hydroxyethyl)-6-chloro-7-(5-chloro(2-pyridyl))imidazo[4,5-b]pyridin-2-ol] | 9.592 |
| C[C@@H](CCO)n1c(O)nc2ncc(Cl)c(-c3ccc(F)cc3)c21 [1-((1S)-3-hydroxy-1-methylpropyl)-6-chloro-7-(4-fluorophenyl)imidazo[4,5-b]pyridin-2-ol] | 2.309 |
| CC[C@@H](n1c(O)nc2ncc(Cl)c(-c3ccc(F)cn3)c21)C(C)(C)O [1-((1R)-1-ethyl-2-hydroxy-2-methylpropyl)-6-chloro-7-(5-fluoro(2-pyridyl))imidazo[4,5-b]pyridin-2-ol] | 8.386 |
| CC[C@@H](CN)n1c(O)nc2ncc(Cl)c(-c3ccc(F)cc3)c21 [1-((1S)-2-amino-1-ethylethyl)-6-chloro-7-(4-fluorophenyl)imidazo[4,5-b]pyridin-2-ol] | 24.3174 |
| 6-chloro-1-(ethylpropyl)-7-(4-methoxyphenyl)imidazo[4,5-b]pyridin-2-ol | 0.728 |
| C[C@@H](CO)n1c(O)nc2ncc(Cl)c(-c3ccc(F)cc3)c21 [1-((1S)-2-hydroxy-isopropyl)-6-chloro-7-(4-fluorophenyl)imidazo[4,5-b]pyridin-2-ol] | 2.016 |
| CC[C@H](CNC(C)=O)c1nc2nc(O)[nH]c2c(-c2ccc(F)cc2)c1Cl [N-{(2R)-2-[6-chloro-7-(4-fluorophenyl)-2-hydroxyimidazo[4,5-b]pyridinyl]butyl}acetamide] | 15.6039 |
| OCCn1c(O)nc2ncc(Cl)c(-c3ccccc3)c21 [6-chloro-1-(2-hydroxyethyl)-7-phenylimidazo[4,5-b]pyridin-2-ol] | 34.551 |
| 2-[6-chloro-1-(ethylpropyl)-2-hydroxyimidazo[4,5-b]pyridin-7-yl]benzamide | 36.169 |
| 6-chloro-1-(ethylpropyl)-7-(1-methyl(1H-indazol-5-yl))imidazo[4,5-b]pyridin-2-ol | 5.365 |
| Oc1nc2ncc(Cl)c(-c3ccc(F)cc3)c2n1C1CCCC1 [6-chloro-1-cyclopentyl-7-(4-fluorophenyl)imidazo[4,5-b]pyridin-2-ol] | 1.677 |
| CC[C@H](CC(C)(C)O)n1c(O)nc2ncc(Cl)c(-c3ccc(F)cc3)c21 [1-((1R)-1-ethyl-3-hydroxy-3-methylbutyl)-6-chloro-7-(4-fluorophenyl)imidazo[4,5-b]pyridin-2-ol] | 2.9192 |
